In patent US12590118B2, “Salt and crystal form of steroid derivative regulator” (Shanghai Hansoh Biomedical Co., Ltd., priority 2019, dated 2026):

Assays:
ICR mice = assay: Forced swimming model in mice; type: in vivo; conditions: for Mean (immobility, %) / Mean (immobility, s): dose 10 mpk p.o.; for Mean (immobility, %): floating time/240 s; for Mean (immobility, s): latter four minutes of 6 min swim; for immobility time during the latter four minutes compared with that of the model group: forced swimming, ICR mice
Experimental: The antidepressant effect of the compound was evaluated by the forced swimming model in mice.
Compounds of Examples 1 to 3, Example 9, Example 40, Example 41, Examples 48 to 52, Example 90 and Example 98 of the present invention, prepared by the applicant.
Male ICR mice (25-35 g) were adapted in the experiment environment for 3 days before the forced swimming test.
According to the experiment design, the mice were randomly grouped on the day before the experiment according to body weight, with 12 mice in each group. Before the test, the compounds of each example were administered intragastrically according to the Tmax thereof in the brain in mice pharmacokinetic experiment.
Respectively: • 1) Model group (0.5% CMC-Na-1% Tween 80 solution, p.o., 10 mL/kg); • 2) Compounds of Examples 1 to 3, Example 40, Example 41, Examples 48 to 51, Example 90 and Example 98 (10 mg/kg, p.o., 10 mL/kg); Example 9 and Example 52 (5 mg/kg, p.o., 5 mL/kg).
When being administered, the compounds of each example were suspended in 0.5% CMC-Na+1% Tween 80 solution to the desired concentration.
0.5-1 hour after administration, ICR mice were placed in a forced swimming device (transparent glass drum (water depth 18 cm, water temperature 25-26° C.), one mouse per tank) and forced to swim for 6 minutes. The forced swimming device recorded the floating time of the ICR mice during the entire 6 minutes, and the data of the latter four minutes were used for data analysis. The mice were taken out immediately after the swimming experiment, wiped dry and put back in their original cages.
Note: The criterion for determining the immobility time is that the mouse stops struggling in water and floats, and there are only slight limb movements to keep the head floating on the water.
3.4 Data Analysis Floating time percentage=100*floating time/240 s.

GABA-A receptor = assay: 35S-TBPS binding assay (GABAA receptor binding ability assay); design: species or system Sprague-Dawley rat; conditions: rat cerebral cortex cell membrane, 5 μM GABA, 2 nM 35S-TBPS; read-out: IC50 on inhibiting the TBPS binding activity, 35S-TBPS bindng assay
Experimental: 1. The cerebral cortex of male Sprague-Dawley rat was isolated.
2. A pre-chilled 0.32 M sucrose solution (one tablet of protease inhibitor was added per 100 mL) was added to the cerebral cortex (the volume of sucrose solution was 10 times the volume of the cerebral cortex). The mixture was crushed with a 50 mL glass tissue homogenizer in batches and mixed well.
3. The mixture was centrifuged at 1,500 g, 4° C. for 10 minutes, and the supernatant was collected.
4. The mixture was centrifuged at 20,000 g, 4° C. for 30 minutes, and the supernatant was discarded.
5. The precipitate was resuspended with the pre-chilled phosphate buffer saline (PBS) (one tablet of protease inhibitor was added per 100 mL). An average of 4 mL of PBS was added per rat, and the mixture was mixed well with a glass tissue homogenizer.
6. The mixture was centrifuged at 10,000 g, 4° C. for 10 minutes, and the supernatant was discarded.
7. Steps 5 and 6 were repeated three times.
8. Finally, the precipitate was resuspended with 4 volumes of PBS. The resulting solution was dispensed, frozen in liquid nitrogen, and stored at −80° C.
9. The protein concentration was measured by the bicinchoninic acid (BCA) method.
1. 230 μL of PBS was added to each well of a well plate with 1.1 mL volume.
2. 60 μL of the cerebral cortex cell membrane (5 μg/μL) solution was added to each well, and the mixture was mixed well.
3. The test compound (3 μL per well) was added, and the plate was incubated at 25° C. for 5 minutes. The DMSO concentration was 1%. The initial compound concentration was […], and a
3-fold dilution in gradient was carried out to obtain a total of 8 gradients and 2 replicates. 1% DMSO was used as a negative control, and 10 μM P026-2 was used as a positive control.
4. GABA was added at a final concentration of 5 μM, and incubated at 25° C. for 5 minutes. 1 mM GABA solution was formulated, and 1.5 μL of the solution was added to each well.
5. 35S-TBPS was added at a final concentration of 2 nM. The concentration of isotope mother solution was 9.7 μM. After dilution with PBS for 100 times, 6 μL of the diluted isotope solution was added to each well.
6. The plate was incubated at 4° C. for 20 hours.
7. The FilterMate GF/C plate was pre-treated with 0.5% PEI, and incubated at 4° C. for 1 hour.
8. The FilterMate GF/C plate was washed with Universal Harvester twice, 50 mL PBS each time.
9. The reaction solution was transferred to the GF/C plate, and each well was washed 4 times with 900 μL of PBS.
10. The washed GF/C plate was placed at 55° C. and dried for 10 minutes.
11. 40 μL of scintillation solution was added to each well, and the CPM value was read with TopCount.
In the experiment, the CPM (counts per minute) value was read with TopCount. According to the readings of the High control (DMSO) and the Low control (10 μM of the positive compound) experimental groups, the % inhibition was calculated based on the following formula: % Inhibition=100×(CPMHigh control−CPMsample)/(CPMHigh control−CPMLow control)
The IC50 of the compound was calculated according to the following 4-parameter nonlinear logic formula: Y=Bottom+(Top−Bottom)/(1+10^((Log IC50−X)*HillSlope)),
wherein: • X represents the log of compound concentration, • Y represents the % Inhibition.
The effect of the compound of the present invention on the TBPS binding activity was determined by the above test, and the measured IC50 values are shown in Table 5.

| Structure (SMILES) | IC50 (GABA-A receptor) [nM] | further results |
| --- | --- | --- |
| C[C@@]1(O)CC[C@H]2[C@H](CC[C@@H]3[C@@H]2CC[C@@]2(C)[C@H]3[C@H](C3CC3)C[C@@H]2C(=O)Cn2ccc(C#N)n2)C1 [Example 49, 1-(2-((3R,5R,8R,9R,10S,13S,14S,15S,17S)-15-Cyclopropyl-3-hydroxy-3,13-dimethylhexadecahydro-1H-cyclopenta[a]phenanthren-17-yl)-2-oxoethyl)-1H-pyrazole-3-carbonitrile] |  | Mean (immobility, %) (ICR mice): 35.74%; Mean (immobility, s) (ICR mice): 85.77 s; immobility time during the latter four minutes compared with that of the model group (ICR mice): very significantly different |
| C[C@@]1(O)CC[C@H]2[C@H](CC[C@@H]3[C@@H]2CC[C@@]2(C)[C@H]3[C@H](C3CC3)C[C@@H]2C(=O)Cn2nccn2)C1 [Example 50, 1-((3R,5R,8R,9R,10S,13S,14S,15S,17S)-15-Cyclopropyl-3-hydroxy-3,13-dimethylhexadecahydro-1H-cyclopenta[a]phenanthren-17-yl)-2-(2H-1,2,3-triazol-2-yl)ethan-1-one] |  | Mean (immobility, %) (ICR mice): 29.57%; Mean (immobility, s) (ICR mice): 70.96 s; immobility time during the latter four minutes compared with that of the model group (ICR mice): very significantly different |
| Cc1nnnn1CC(=O)[C@H]1[C@H]2C[C@H]2[C@H]2[C@@H]3CC[C@@H]4C[C@](C)(O)CC[C@@H]4[C@H]3CC[C@@]21C [Example 71, 1-((2R,4aS,4bR,6aS,7S,7aS,8aR,8bR,8cR,10aR)-2-Hydroxy-2,6a-dimethyloctadecahydrocyclopropa[4,5]cyclopenta[1,2-a]phenanthren-7-yl)-2-(5-methyl-1H-tetrazol-1-yl)ethan-1-one] | 11.4 |  |
| C[C@@]1(O)CC[C@H]2[C@H](CC[C@@H]3[C@@H]2CC[C@@]2(C)[C@H]3[C@@H]3C[C@@H]3[C@@H]2C(=O)Cn2cc([N+](=O)[O-])cn2)C1 [Example 73, 1-((2R,4aS,4bR,6aS,7S,7aS,8aR,8bR,8cR,10aR)-2-Hydroxy-2,6a-dimethyloctadecahydrocyclopropa[4,5]cyclopenta[1,2-a]phenanthren-7-yl)-2-(4-nitro-1H-pyrazol-1-yl)ethan-1-one] | 10.2 |  |
| C[C@@]1(O)CC[C@H]2[C@H](CC[C@@H]3[C@@H]2CC[C@@]2(C)[C@H]3[C@@H]3C[C@@H]3[C@@H]2C(=O)Cn2nc(C#N)cc2C#N)C1 [Example 84, 1-(2-((2R,4aS,4bR,6aS,7S,7aS,8aR,8bR,8cR,10aR)-2-Hydroxy-2,6a-dimethyloctadecahydrocyclopropa[4,5]cyclopenta[1,2-a]phenanthren-7-yl)-2-oxoethyl)-1H-pyrazole-3,5-dicarbonitrile] | 6.1 |  |
| C[C@@]1(O)CC[C@H]2[C@H](CC[C@@H]3[C@@H]2CC[C@@]2(C)[C@H]3[C@@H]3C[C@@H]3[C@@H]2C(=O)Cn2cc(-c3ncco3)cn2)C1 [Example 85, 1-((2R,4aS,4bR,6aS,7S,7aS,8aR,8bR,8cR,10aR)-2-Hydroxy-2,6a-dimethyloctadecahydrocyclopropa[4,5]cyclopenta[1,2-a]phenanthren-7-yl)-2-(4-(oxazol-2-yl)-1H-pyrazol-1-yl)ethan-1-one] | 15.8 |  |
| CC[C@@H]1C[C@H](C(=O)Cn2ccc(C(F)(F)F)n2)[C@@]2(C)CC[C@H]3[C@@H](CC[C@@H]4C[C@](C)(O)CC[C@@H]43)[C@H]12 [Example 91, 1-((3R,5R,8R,9R,10S,13S,14S,15R,17S)-15-Ethyl-3-hydroxy-3,13-dimethylhexadecahydro-1H-cyclopenta[a]phenanthren-17-yl)-2-(3-(trifluoromethyl)-1H-pyrazol-1-yl)ethan-1-one] | 25.2 |  |
| CC[C@@H]1C[C@H](C(=O)Cn2nnc(C)n2)[C@@]2(C)CC[C@H]3[C@@H](CC[C@@H]4C[C@](C)(O)CC[C@@H]43)[C@H]12 [Example 92, 1-((3R,5R,8R,9R,10S,13S,14S,15R,17S)-15-Ethyl-3-hydroxy-3,13-dimethylhexadecahydro-1H-cyclopenta[a]phenanthren-17-yl)-2-(5-methyl-2H-tetrazol-2-yl)ethan-1-one] | 27 |  |
| CC[C@@H]1C[C@H](C(=O)Cn2nccn2)[C@@]2(C)CC[C@H]3[C@@H](CC[C@@H]4C[C@](C)(O)CC[C@@H]43)[C@H]12 [Example 94, 1-((3R,5R,8R,9R,10S,13S,14S,15R,17S)-15-Ethyl-3-hydroxy-3,13-dimethylhexadecahydro-1H-cyclopenta[a]phenanthren-17-yl)-2-(2H-1,2,3-triazol-2-yl)ethan-1-one] | 23.9 |  |
| CC[C@@H]1C[C@H](C(=O)Cn2nc(C#N)cc2C#N)[C@@]2(C)CC[C@H]3[C@@H](CC[C@@H]4C[C@](C)(O)CC[C@@H]43)[C@H]12 [Example 95, 1-(2-((3R,5R,8R,9R,10S,13S,14S,15R,17S)-15-Ethyl-3-hydroxy-3,13-dimethylhexadecahydro-1H-cyclopenta[a]phenanthren-17-yl)-2-oxoethyl)-1H-pyrazole-3,5-dicarbonitrile] | 16.2 |  |
| C[C@@]1(O)CC[C@H]2[C@H](CC[C@@H]3[C@@H]2CC[C@@]2(C)[C@H]3[C@H](C3CC3)C[C@@H]2C(=O)Cn2ccc(C(F)(F)F)n2)C1 [Example 97, 1-((3R,5R,8R,9R,10S,13S,14S,15S,17S)-15-Cyclopropyl-3-hydroxy-3,13-dimethylhexadecahydro-1H-cyclopenta[a]phenanthren-17-yl)-2-(3-(trifluoromethyl)-1H-pyrazol-1-yl)ethan-1-one] | 18.6 |  |
| C[C@@]1(O)CC[C@H]2[C@H](CC[C@@H]3[C@@H]2CC[C@@]2(C)[C@H]3[C@H](C3CC3)C[C@@H]2C(=O)Cn2cc(C#N)c(Cl)n2)C1 [Example 99, 3-Chloro-1-(2-((3R,5R,8R,9R,10S,13S,14S,15S,17S)-15-cyclopropyl-3-hydroxy-3,13-dimethylhexadecahydro-1H-cyclopenta[a]phenanthren-17-yl)-2-oxoethyl)-1H-pyrazole-4-carbonitrile] | 24.4 |  |
| CC[C@@H]1C[C@H](C(=O)Cn2ncnn2)[C@@]2(C)CC[C@H]3[C@@H](CC[C@@H]4C[C@](C)(O)CC[C@@H]43)[C@H]12 [Example 100, 1-((3R,5R,8R,9R,10S,13S,14S,15R,17S)-15-Ethyl-3-hydroxy-3,13-dimethylhexadecahydro-1H-cyclopenta[a]phenanthren-17-yl)-2-(2H-tetrazol-2-yl)ethan-1-one] | 25.6 |  |
